The text below walks through data of PubChem BioAssay (NCI).

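Briefly, cells in 96-well plates were exposed to five compound concentrations for 48 h, and endpoints were estimated by linear interpolation. TGI: total growth inhibition.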

Among the test systems are SF-268 CNS; UACC-257 melanoma; EKVX NSCLC; SF-539 CNS; ACHN renal; SK-MEL-2 melanoma; NCI-H23 lung; OVCAR-8 ovarian; LOX IMVI melanoma; SK-MEL-28 melanoma; UO-31 renal; NCI-H460 lung; OVCAR-4 ovarian; SNB-75 CNS; IGROV1 ovarian; CAKI-1 renal; DU-145 prostate; OVCAR-3 ovarian; HL-60(TB) leukemia.
Common to all, as to assay: growth of human tumour cells (NCI), 48 h

For the compound `O/C(=C\c1nc2ccccc2nc1/C=C(\O)c1ccc(Cl)cc1)c1ccccc1`, the TGI in the assay on SF-268 CNS, in the assay on UACC-257 melanoma, with EKVX NSCLC, in the assay with SF-539 CNS, in the assay on ACHN renal and in the assay with SK-MEL-2 melanoma was > 100 µM throughout. Further, the TGI with NCI-H23 lung, with OVCAR-8 ovarian, with LOX IMVI melanoma, in the assay on SK-MEL-28 melanoma, in the assay with UO-31 renal and in the assay with NCI-H460 lung was > 100 µM in each case. For the same compound, the TGI in the assay with OVCAR-4 ovarian is > 100 µM; with SNB-75 CNS, 72.8 µM; with IGROV1 ovarian, > 100 µM; with CAKI-1 renal, 65.4 µM; in the assay on DU-145 prostate, > 100 µM.
As for `CNC(=O)c1n[nH]nc1Sc1c([N+](=O)[O-])ncn1C`, the TGI in the assay on SF-268 CNS, in the assay on UACC-257 melanoma, in the assay with EKVX NSCLC, with SF-539 CNS, with ACHN renal and in the assay on SK-MEL-2 melanoma was > 100 µM in each case. The TGI with OVCAR-3 ovarian, with NCI-H23 lung, in the assay with OVCAR-8 ovarian, with LOX IMVI melanoma, in the assay on SK-MEL-28 melanoma and in the assay on UO-31 renal was > 100 µM throughout. Further, the TGI with NCI-H460 lung, in the assay with OVCAR-4 ovarian, with IGROV1 ovarian, with CAKI-1 renal and with DU-145 prostate was > 100 µM each time.
Take `COc1ccc(C(=O)Cn2c(C(=O)/C=C/c3ccco3)nc3ccccc32)cc1`: the TGI was 91.4 µM with SF-268 CNS; > 100 µM in the assay with UACC-257 melanoma; > 100 µM with SF-539 CNS; > 100 µM in the assay with ACHN renal; 51.6 µM in the assay with SK-MEL-2 melanoma; 72.3 µM with OVCAR-3 ovarian. Moreover, the TGI in the assay on NCI-H23 lung, in the assay on LOX IMVI melanoma, in the assay with SK-MEL-28 melanoma, in the assay with UO-31 renal, with NCI-H460 lung and with OVCAR-4 ovarian was > 100 µM in each case. Besides, the TGI in the assay with SNB-75 CNS was > 100 µM; with IGROV1 ovarian, > 100 µM; in the assay on HL-60(TB) leukemia, 71.7 µM; in the assay with DU-145 prostate, > 100 µM.
In the case of `FC(F)(Sc1ccccn1)c1nc2ccccc2o1`, the TGI in the assay on SF-268 CNS, in the assay on UACC-257 melanoma, with SF-539 CNS, in the assay on ACHN renal, with SK-MEL-2 melanoma and in the assay on OVCAR-3 ovarian was > 100 µM in each case. The TGI in the assay on NCI-H23 lung, in the assay with OVCAR-8 ovarian, in the assay with SK-MEL-28 melanoma, in the assay on UO-31 renal, in the assay with NCI-H460 lung and with OVCAR-4 ovarian was > 100 µM throughout. For the same compound, the TGI in the assay on IGROV1 ovarian, with CAKI-1 renal and in the assay on DU-145 prostate was > 100 µM each time.
As for `c1ccc(Cc2nc(Cc3n[nH]c(Cc4ccccc4)n3)n[nH]2)cc1`, the TGI in the assay on SF-268 CNS, in the assay on UACC-257 melanoma, in the assay on EKVX NSCLC, with SF-539 CNS, with ACHN renal and in the assay on SK-MEL-2 melanoma was > 100 µM in each case. The TGI in the assay with OVCAR-3 ovarian, with NCI-H23 lung, in the assay on OVCAR-8 ovarian, in the assay on LOX IMVI melanoma, in the assay with SK-MEL-28 melanoma and in the assay on UO-31 renal was > 100 µM throughout. Further, the TGI in the assay on OVCAR-4 ovarian, in the assay with SNB-75 CNS, in the assay with IGROV1 ovarian and in the assay on DU-145 prostate was > 100 µM in each case.
`c1ccc(N=C(Nc2ccccc2)N2CCCCC2)cc1`: the TGI was > 100 µM with SF-268 CNS; 68.9 µM with UACC-257 melanoma; > 100 µM with EKVX NSCLC; > 100 µM in the assay with ACHN renal; > 100 µM in the assay with SK-MEL-2 melanoma; > 100 µM with OVCAR-3 ovarian. The TGI in the assay with NCI-H23 lung, with OVCAR-8 ovarian, in the assay on LOX IMVI melanoma, in the assay with SK-MEL-28 melanoma, in the assay on UO-31 renal and in the assay with NCI-H460 lung was > 100 µM in each case. Further, the TGI with OVCAR-4 ovarian, in the assay on SNB-75 CNS, with IGROV1 ovarian, in the assay on CAKI-1 renal and in the assay with HL-60(TB) leukemia was > 100 µM each time.
Regarding `COC(=O)c1sc2ncc3c(c2c1N)CCCCCC3`, the TGI in the assay with SF-268 CNS, in the assay with UACC-257 melanoma, in the assay on EKVX NSCLC, in the assay with SF-539 CNS, in the assay with ACHN renal and in the assay on SK-MEL-2 melanoma was > 100 µM in each case. For the same compound, the TGI in the assay with OVCAR-3 ovarian, with NCI-H23 lung, in the assay on OVCAR-8 ovarian, with LOX IMVI melanoma, in the assay with SK-MEL-28 melanoma and in the assay on UO-31 renal was > 100 µM each time. In addition, the TGI in the assay on NCI-H460 lung, in the assay on OVCAR-4 ovarian, in the assay on SNB-75 CNS, in the assay on IGROV1 ovarian, with CAKI-1 renal and in the assay with DU-145 prostate was > 100 µM in each case.
Take `O=C1C(N2CCNCC2)=C(Cl)C(=O)c2ncccc21`: the TGI in the assay on SF-268 CNS, in the assay on UACC-257 melanoma, in the assay with EKVX NSCLC, with SF-539 CNS, with ACHN renal and with SK-MEL-2 melanoma was > 10 µM throughout. Further, the TGI in the assay with OVCAR-3 ovarian, in the assay on NCI-H23 lung, with OVCAR-8 ovarian, with SK-MEL-28 melanoma, in the assay with NCI-H460 lung and in the assay with OVCAR-4 ovarian was > 10 µM in each case. The TGI in the assay on SNB-75 CNS, in the assay on IGROV1 ovarian, with CAKI-1 renal and in the assay with DU-145 prostate was > 10 µM throughout.
